Assay results taken from ChEMBL document CHEMBL3044545, “Synthesis and evaluation of antioxidant and antimicrobial properties of thymol containing pyridone moieties” (2012).

Experiments:
Format in all cases: functional
[1] = Antioxidant activity assessed as inhibition of NBT reduction at 100 ug/ml
Staphylococcus aureus [2] = test: Antimicrobial activity against Staphylococcus aureus at 100 ppm after 48 hr by agar well diffusion method; conditions: read-out: IZ
[3] = Antioxidant activity assessed as inhibition of NBT reduction at 40 ug/ml
Escherichia coli [4] = test: Antimicrobial activity against Escherichia coli at 100 ppm after 48 hr by agar well diffusion method; conditions: read-out: IZ
[5] = Antioxidant activity assessed as inhibition of NBT reduction at 80 ug/ml
[6] = Antioxidant activity assessed as inhibition of NBT reduction at 60 ug/ml
[7] = Antioxidant activity assessed as inhibition of NBT reduction at 20 ug/ml
Aspergillus niger [8] = test: Antimicrobial activity against Aspergillus niger at 100 ppm after 48 hr by agar well diffusion method; conditions: read-out: IZ
Talaromyces marneffei [9] = test: Antimicrobial activity against Talaromyces marneffei at 100 ppm after 48 hr by agar well diffusion method; conditions: read-out: IZ
Staphylococcus aureus [10] = test: Antimicrobial activity against Staphylococcus aureus at 100 ug/ml after 48 hr by agar well diffusion method; conditions: read-out: IZ
Escherichia coli [11] = test: Antimicrobial activity against Escherichia coli at 100 ug/ml after 48 hr by agar well diffusion method; conditions: read-out: IZ
Talaromyces marneffei [12] = test: Antimicrobial activity against Talaromyces marneffei at 100 ug/ml after 48 hr by agar well diffusion method; conditions: read-out: IZ
Aspergillus niger [13] = test: Antimicrobial activity against Aspergillus niger at 100 ug/ml after 48 hr by agar well diffusion method; conditions: read-out: IZ

| SMILES | inhibition [1] [%] | zone of inhibition at 100 ppm (Staphylococcus aureus [2]) [mm] | inhibition [3] [%] | zone of inhibition at 100 ppm (Escherichia coli [4]) [mm] | inhibition [5] [%] | inhibition [6] [%] | inhibition [7] [%] | zone of inhibition at 100 ppm (Aspergillus niger [8]) [mm] | zone of inhibition at 100 ppm (Talaromyces marneffei [9]) [mm] | zone of inhibition at 100 µg/mL (Staphylococcus aureus [10]) [mm] | zone of inhibition at 100 µg/mL (Escherichia coli [11]) [mm] | zone of inhibition at 100 µg/mL (Talaromyces marneffei [12]) [mm] | zone of inhibition at 100 µg/mL (Aspergillus niger [13]) [mm] |
| --- | --- | --- | --- | --- | --- | --- | --- | --- | --- | --- | --- | --- | --- |
| COc1cc(-c2cc(-c3cc(C(C)C)c(O)cc3C)[nH]c(=O)c2C#N)cc(OC)c1OC | 84.5 | 10 | 55 | 11 | 82 | 71 | 35 | – | – | – | – | – | – |
| Cc1ccc(C(C)C)c(O)c1 [THYMOL] | 31 | 9 | 16 | 8 | 27.5 | 22.5 | 10 | 8 | 7 | – | – | – | – |
| Cc1cc(O)c(C(C)C)cc1-c1cc(-c2ccc(N(C)C)cc2)c(C#N)c(=O)[nH]1 | 68 | 14 | 43 | 14 | 66.5 | 53 | 30 | 14 | 13 | – | – | – | – |
| Cc1onc(-c2ccccc2Cl)c1C(=O)N[C@@H]1C(=O)N2[C@@H]1SC(C)(C)[C@@H]2C(=O)O [CLOXACILLIN] | – | – | – | – | – | – | – | – | – | 18 | 17 | – | – |
| COc1ccc(-c2cc(-c3cc(C(C)C)c(O)cc3C)[nH]c(=O)c2C#N)cc1OC | 61 | 13 | 44 | 13 | 58 | 52 | 25 | 9 | 10 | – | – | – | – |
| OC(Cn1cncn1)(Cn1cncn1)c1ccc(F)cc1F [FLUCONAZOLE] | – | – | – | – | – | – | – | – | – | – | – | 17 | 16 |
| Cc1cc(O)c(C(C)C)cc1-c1cc(-c2ccccc2)c(C#N)c(=O)[nH]1 | 41 | 11 | 29 | 10 | 58 | 34 | 22 | 9 | 9 | – | – | – | – |
| Cc1cc(O)c(C(C)C)cc1-c1cc(-c2ccccc2Cl)c(C#N)c(=O)[nH]1 | 34 | 14 | 20 | 15 | 32 | 26 | 12 | 11 | 12 | – | – | – | – |
| Cc1cc(O)c(C(C)C)cc1-c1cc(-c2ccco2)c(C#N)c(=O)[nH]1 | 70 | 13 | 42.5 | 12 | 64 | 55.2 | 26 | 10 | 9 | – | – | – | – |
| Cc1cc(O)c(C(C)C)cc1-c1cc(-c2cccs2)c(C#N)c(=O)[nH]1 | 68 | 14 | 41 | 13 | 63 | 54.3 | 26 | 10 | 11 | – | – | – | – |
| COc1cccc(-c2cc(-c3cc(C(C)C)c(O)cc3C)[nH]c(=O)c2C#N)c1 | 49 | 13 | 30 | 14 | 43 | 38 | 22 | 11 | 11 | – | – | – | – |
| COc1cc(-c2cc(-c3cc(C(C)C)c(O)cc3C)[nH]c(=O)c2C#N)ccc1O | 44 | 15 | 32 | 14 | 42 | 37.5 | 26 | 11 | 11 | – | – | – | – |
| COc1ccc(-c2cc(-c3cc(C(C)C)c(O)cc3C)[nH]c(=O)c2C#N)c(OC)c1 | 58 | 14 | 37.5 | 13 | 55 | 48.5 | 27 | 10 | 10 | – | – | – | – |
| Cc1cc(O)c(C(C)C)cc1-c1cc(-c2ccccc2[N+](=O)[O-])c(C#N)c(=O)[nH]1 | 37.5 | 13 | 25.5 | 14 | 35 | 31 | 20 | 12 | 11 | – | – | – | – |
| COc1cc(OC)c(-c2cc(-c3cc(C(C)C)c(O)cc3C)[nH]c(=O)c2C#N)c(OC)c1 | 82.5 | 11 | 52.6 | 10 | 79 | 66 | 32 | – | – | – | – | – | – |
| COc1ccc(-c2cc(-c3cc(C(C)C)c(O)cc3C)[nH]c(=O)c2C#N)cc1 | 54 | 13 | 35 | 14 | 47.5 | 43 | 24 | 10 | 10 | – | – | – | – |
